Results as given in patent publication US8173131B2, “Compositions and methods for modulating RSV infection and immunity” (PerkinElmer Health Sciences, Inc., priority 2000, dated 2012).

Assays:
RSV = RSV plaque reduction assay on Vero cells (Example 1); assay type: cell-based, RSV/A2
Protocol: Dilutions of Fkn (R&D systems), SDF-1 α (R&D systems), G glycoprotein, heparin (Sigma), G glycoprotein peptides and anti-CX3CR1 antibody were made in serum-free Dulbecco's Modified Eagle's Media (DMEM; GIBCO) containing 1% BSA (Sigma) and preincubated with the Vero cells for 1 h at 37° C. 50 μg of anti-CX3CR1 antibody or heat-inactivated (56° C., 30 min) normal rabbit sera (control) were used in all experiments. […] Dilutions of RSV were made in serum-free DMEM (GIBCO) and added to pretreated Vero cells for 2 h at 37° C. Following virus infection, DMEM (GIBCO) containing 10% FBS (Hyclone, Logan, Utah) was added to the wells. Plaques were enumerated using immunostaining for F and G glycoproteins using biotinylated monoclonal antibodies 131-2A (anti-F glycoprotein) and 130-2G (anti-G glycoprotein) as described^45.
RSV plaque reduction following treatment with G glycoprotein, Fkn, G glycoprotein peptides, anti-CX3CR1 antibody, SDF-1-α and/or heparin as described in Methods. Percent inhibition was determined from the mean plaque forming units (pfu) of treated Vero cells over saline-treated Vero cells using a dilution of RSV that would produce 40-80 pfu. p-values were determined using unpaired two-tailed analysis where p<0.05 is significant. The concentration of G glycoprotein was estimated using a molecular weight of 90 kD.

[1] = test system: bronchoalveolar leukocytes (BAL); assay: BAL cell infiltration and cell types in RSV-infected mice following in vivo peptide treatment; set-up: species or system BALB/c mice; conditions: in words
Text: Total pulmonary leukocyte trafficking following treatment of mice with peptides containing a CX3C motif (RT33 and EYp1) (A) or peptides without a CX3C motif (RT34, Δ+1, Δ−1)(B).
Flow cytometry results following treatment (d−1) of mice with PBS, RT33, RT34, Δ+1, Δ−1 and EYp1 peptides (100 μm). BAL cells were stained with antibodies against B220^+ (A, D, G), CD3^+ (B, E, H) and CD11b^+ (C, F, I) cells. Data is expressed as the total BAL cells/lung±SEM at days 3, 5, 7 and 14 post-infection. A representative experiment from 3 independent experiments is shown.
Flow cytometry results following treatment (d−1) of mice with PBS, RT33, RT34, Δ+1, Δ−1 and EYp1 peptides (100 μm). BAL cells were stained with antibodies against NK (DX5^+) (A, C, E) and PMN (RB6-8C5^+) cells (B, D, F). Data is expressed as the total BAL cells/lung±SEM at days 3, 5, 7 and 14 post-infection. A representative experiment from 3 independent experiments is shown.
(§1) On day −1, prior to RSV infection, mice were i.p. treated (0.1 ml/mouse) with 100 μM of G glycoprotein peptides RT33 (CWAIC) (SEQ ID NO: 12), RT34 (lacks the CX3C motif) or peptides with changes in the CX3C motif (Δ+1, Δ−1, EYp1). Control mice were treated with PBS containing a similar dilution of DMSO used to solubilize the peptides.
Mice were anesthetized with Avertin and exsanguinated by severing the right caudal artery. Bronchoalveolar leukocyte (BAL) cells were harvested by lung lavage with PBS containing 1% bovine serum albumin (BSA, Sigma). The procedure used for extracellular staining of BAL cells was modified for microculture staining as described (55,57). Briefly, BAL cells were washed in Dulbecco's PBS (GIBCO) containing 1% bovine serum albumin (Sigma), blocked with 10% normal mouse sera diluted in PBS containing 1% bovine serum albumin, and then stained (4° C., 30 min) with an appropriate dilution of FITC-conjugated or PE-conjugated anti-CD3ε (145-2C11), anti-CD45R/B220 (RA3-6B2), anti-CD8 (Ly-2), anti-neutrophil (PMN) (RB6-8C5), anti-CD11b (M1/70) and isotype antibody controls (all from Pharmingen, San Diego, Calif.).

CD3+ BAL cells = assay: Intracellular cytokine expression by CD3+ T cells following in vivo peptide treatment; set-up: species or system BALB/c mice
Protocol: as §1
Intracellular cytokine staining was modified for microculture staining as described (55, 57). Briefly, BAL cells were incubated in PBS containing Golgi Stop (Pharmingen) for 3 h at 37° C. to allow for accumulation of intracellular cytokines. The cells were washed in PBS containing 1% bovine serum albumin, blocked with 10% normal mouse sera diluted in PBS containing 1% bovine serum albumin, and stained (4° C., 30 min) with an appropriate dilution of anti-CD3 antibody, fixed and permeabilized in Cytofix/Cytoperm (Pharmingen). The cells were washed in Cytofix/Cytoperm buffer and stained (4° C., 30 min) with appropriate dilutions of anti-IL-2 (JES6-5H4), anti-IL-4 (BVD4-1D11), anti-IL-5 (TRFK5), IL-10 (JES3-16E3), anti-IFNγ (XMG1.2), or anti-TNFα (MP6-XT22) antibodies (Pharmingen) diluted in Cytofix/Cytoperm. Extra- and intracellular staining was analyzed by flow cytometry using a FACScan and Cell Quest software (Becton Dickinson, San Diego, Calif.). Total cytokine expression by CD3+ T cells was determined from the percent cytokine expression of CD3+ T cells and total number of cells recovered. The total number of CD3+ BAL cells expressing a particular cytokine was determined by multiplying the total number of BAL cells by the percent CD3+ cells expressing that particular cytokine.

[2] = test system: G glycoprotein binding to 293-CX3CR1 cells; set-up: species or system human; conditions: chemokine 10 μM
Protocol: All binding studies were done on ice and either G glycoprotein or human Fkn (R&D Diagnostics, Minneapolis, Minn.) were diluted between 1 nM-100 nM in PBS (GIBCO) containing 1% bovine serum albumin (Sigma) and incubated with the 293-CX3CR1 cells or 293 control cells for 30 min at 4° C. […] Without washing, 100 pM of either Fkn or G glycoprotein was added and incubated for 30 min at 4° C. The cells were washed, blocked with FcγRIII blocking antibody (HB197) for 30 min on ice, washed and stained as appropriate with either an anti-G glycoprotein monoclonal antibody cocktail (132-5B, 132-5G, 130-2G, 232-IF) or a biotinylated anti-G glycoprotein monoclonal antibody cocktail (130-2G, 131-2G) or anti-Fkn monoclonal antibody (51637.11; R&D Diagnostics). Concentrations of 1 μg of anti-G glycoprotein monoclonal antibody (131-2G)^34, rabbit anti-CX3CR1 sera^33, and anti-CX3CR1 monoclonal antibody containing 10 μg/ml heparin were used in all experiments. […] Staining was detected with absorbed FITC-goat anti-mouse (H & L chain) monoclonal antibody (PharMingen, San Diego, Calif.) or streptavidin-PE (PharMingen) using flow cytometry (FACScan, Becton-Dickinson, Mountain View, Calif.). A 76 amino acid ^125I-Fkn polypeptide comprising the […] (NEN, Boston, Mass.) was used in radioligand studies^33. As a control, the void volume following purified G glycoprotein passaged over an anti-G glycoprotein antibody (130-2G) affinity column was examined by flow cytometry for binding to either 293 or 293-CX3CR1 cells.
For peptide inhibition studies, a series of G glycoprotein peptides were identified in the amino acid sequence of the A2 strain of RSV (GENBANK, attachment protein locus 1912305, Table 4). The peptides were synthesized using a simultaneous, multiple solid-phase peptide synthesis method on a peptide synthesizer (Perkin-Elmer Applied Biosystems, Berkeley, Calif.), and tested for homogeneity by reverse-phase liquid chromatography and capillary electrophoresis (www.biotech.cdc.gov/protein/methods). Inhibition assays were performed as described for the binding studies above.
To determine if G glycoprotein bound 293-CX3CR1 cells via CX3CR1, the ability of four reagents (anti-CX3CR1 rabbit antiserum, anti-CX3CR1 monoclonal antibody (2A9-1), Fkn and a 76 amino acid 125-I-Fkn polypeptide containing the CX3C domain) that bind to CX3CR1 to block G glycoprotein binding to 293-CX3CR1 cells was examined. In addition, to determine if binding of G glycoprotein to 293-CX3CR1 cells was dependent upon the CX3C motif, G glycoprotein peptides with a single residue insertion (Δ+1) or deletion (Δ−1) in the CX3C motif and also peptides that lacked or included the CX3C motif (Table 4) were generated. This panel of peptides was analyzed for their ability to block G glycoprotein or Fkn binding to 293-CX3CR1 cells.
Inhibition of Fkn and G glycoprotein binding to 293-CX3CR1 cells by treatment with monoclonal antibodies to G glycoprotein or CX3CR1, or treatment with G glycoprotein, Fkn, or G glycoprotein peptides in the presence or absence of heparin as described in Methods. […] The concentration of G glycoprotein was estimated using a molecular weight of 90 kD.

[3] = molecular target: T1, Fkn binding to 293-CX3CR1 cells (Homo sapiens, UniProt P49238); conditions: chemokine 10 μM
T1 construct: host or cells: HEK 293 cells stably transfected with CX3CR1
T1 sequence (P49238 whole entry): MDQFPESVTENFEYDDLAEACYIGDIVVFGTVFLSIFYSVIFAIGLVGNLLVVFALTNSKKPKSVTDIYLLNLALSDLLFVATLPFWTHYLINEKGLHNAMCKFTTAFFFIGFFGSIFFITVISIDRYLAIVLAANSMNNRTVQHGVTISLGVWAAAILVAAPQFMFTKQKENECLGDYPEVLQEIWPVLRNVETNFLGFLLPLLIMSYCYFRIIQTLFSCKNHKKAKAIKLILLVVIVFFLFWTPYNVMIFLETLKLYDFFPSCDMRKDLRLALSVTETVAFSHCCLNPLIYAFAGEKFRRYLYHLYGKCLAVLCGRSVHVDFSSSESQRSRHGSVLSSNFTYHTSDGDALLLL

SDF-1α [reference compound]
plaque inhibition (%) (RSV; 1 nM): 5% | plaque inhibition (%) (RSV; 10 nM): 7% | plaque inhibition (%) (RSV; 100 nM): 12% | effect on RSV plaque formation / plaque number (RSV; in words): no effect on RSV plaque formation was detected

TCAAACKRIPNKK [EYp1, 13-mer G glycoprotein peptide variant of RT33 with CAAAC motif]
total BAL numbers compared to mice treated with RT34, Δ−1 or PBS ([1]; day 3 pi): reduced BAL numbers | numbers of BAL cell types (B220+, CD3+, CD11b+, NK, PMN) ([1]; days 3, 5, 7 and 14 pi): increased numbers of CD3+ cells on days 5 and 7 pi | course of BAL numbers ([1]; from day 3 to day 14 pi): increased | Total IC cytokine Expressing CD3^+ BAL cells (×10^3) ± SEM: IFNγ (CD3+ BAL cells; day 3 pi): 32 ± 7.3 ×10^3 | Total IC cytokine Expressing CD3^+ BAL cells (×10^3) ± SEM: IL-4 (CD3+ BAL cells; day 3 pi): 32 ± 7.2 ×10^3 | Total IC cytokine Expressing CD3^+ BAL cells (×10^3) ± SEM: IL-5 (CD3+ BAL cells; day 3 pi): 34 ± 7.7 ×10^3 | Total IC cytokine Expressing CD3^+ BAL cells (×10^3) ± SEM: IL-6 (CD3+ BAL cells; day 3 pi): 35 ± 8.0 ×10^3 | Total IC cytokine Expressing CD3^+ BAL cells (×10^3) ± SEM: TNFα (CD3+ BAL cells; day 3 pi): 36 ± 8.1 ×10^3 | Total IC cytokine Expressing CD3^+ BAL cells (×10^3) ± SEM: IL-2 (CD3+ BAL cells; day 3 pi, peptide 24 hours prior to RSV infection): 26 ± 6.0 ×10^3 | Total IC cytokine Expressing CD3^+ BAL cells (×10^3) ± SEM: IFNγ (CD3+ BAL cells; day 5 pi): 26 ± 5.4 ×10^3 | Total IC cytokine Expressing CD3^+ BAL cells (×10^3) ± SEM: IL-2 (CD3+ BAL cells; day 5 pi): 17 ± 3.6 ×10^3 | Total IC cytokine Expressing CD3^+ BAL cells (×10^3) ± SEM: IL-4 (CD3+ BAL cells; day 5 pi): 28 ± 5.6 ×10^3 | Total IC cytokine Expressing CD3^+ BAL cells (×10^3) ± SEM: IL-5 (CD3+ BAL cells; day 5 pi): 32 ± 6.5 ×10^3 | Total IC cytokine Expressing CD3^+ BAL cells (×10^3) ± SEM: IL-6 (CD3+ BAL cells; day 5 pi): 19 ± 7.4 ×10^3 | Total IC cytokine Expressing CD3^+ BAL cells (×10^3) ± SEM: TNFα (CD3+ BAL cells; day 5 pi): 41 ± 8.4 ×10^3 | Total IC cytokine Expressing CD3^+ BAL cells (×10^3) ± SEM: IFNγ (CD3+ BAL cells; day 7 pi): 18 ± 2.6 ×10^3 | Total IC cytokine Expressing CD3^+ BAL cells (×10^3) ± SEM: IL-2 (CD3+ BAL cells; day 7 pi): 7.8 ± 1.1 ×10^3 | Total IC cytokine Expressing CD3^+ BAL cells (×10^3) ± SEM: IL-4 (CD3+ BAL cells; day 7 pi): 12 ± 1.6 ×10^3 | Total IC cytokine Expressing CD3^+ BAL cells (×10^3) ± SEM: IL-5 (CD3+ BAL cells; day 7 pi): 20 ± 2.8 ×10^3 | Total IC cytokine Expressing CD3^+ BAL cells (×10^3) ± SEM: IL-6 (CD3+ BAL cells; day 7 pi): 17 ± 2.4 ×10^3 | Total IC cytokine Expressing CD3^+ BAL cells (×10^3) ± SEM: TNFα (CD3+ BAL cells; day 7 pi): 6.8 ± 2.8 ×10^3 | Total IC cytokine Expressing CD3^+ BAL cells (×10^3) ± SEM: IFNγ (CD3+ BAL cells; day 14 pi): 5.3 ± 0.3 ×10^3 | Total IC cytokine Expressing CD3^+ BAL cells (×10^3) ± SEM: IL-2 (CD3+ BAL cells; day 14 pi): 5.1 ± 0.3 ×10^3 | Total IC cytokine Expressing CD3^+ BAL cells (×10^3) ± SEM: IL-4 (CD3+ BAL cells; day 14 pi): 5.4 ± 0.3 ×10^3 | Total IC cytokine Expressing CD3^+ BAL cells (×10^3) ± SEM: IL-5 (CD3+ BAL cells; day 14 pi): 7.7 ± 0.5 ×10^3 | Total IC cytokine Expressing CD3^+ BAL cells (×10^3) ± SEM: IL-6 (CD3+ BAL cells; day 14 pi): 5.0 ± 0.3 ×10^3 | Total IC cytokine Expressing CD3^+ BAL cells (×10^3) ± SEM: TNFα (CD3+ BAL cells; day 14 pi): 6.8 ± 0.5 ×10^3

B1: IP-10: chemokine (protein, UniProt P17515 22-98, looked up)
C-X-C motif chemokine 10: IPLARTVRCNCIHIDDGPVRMRAIGKLEIIPASLSCPRVEIIATMKKNDEQRCLNPESKTIKNLMKAFSQKRSKRAP
Range of Inhibition (%) of G glycoprotein binding [2]: 0-4% | Range of Inhibition (%) of Fkn binding [3]: 0-6%

B2: MIP-2: chemokine (protein)
chain: AVVASELRCQCLKTLPRVDFKNIQSLSVTPPGPHCAQTEVIATLKGGQKVCLDPEAPLVQKIIQKILNKGKAN
Range of Inhibition (%) of G glycoprotein binding [2]: 2-8% | Range of Inhibition (%) of Fkn binding [3]: 0-4%

B3: KC: growth regulated oncogene-α, KC, chemokine (protein, UniProt P12850 25-96, looked up)
Growth-regulated alpha protein: APIANELRCQCLQTMAGIHLKNIQSLKVLPSGPHCTQTEVIATLKNGREACLDPEAPLVQKIVQKMLKGVPK
Range of Inhibition (%) of G glycoprotein binding [2]: 0-6% | Range of Inhibition (%) of Fkn binding [3]: 4-6%

B4: C10: macrophage inflammatory protein-related protein-1 (C10), chemokine (protein)
chain: GLIQEMEKEDRRYNPPIIHQGFQDTSSDCCFSYATQIPCKRFIYYFPTSGGCIKPGIIFISRRGTQVCADPSDRRVQRCLSTLKQGPRSGNKVIA
Range of Inhibition (%) of G glycoprotein binding [2]: 5-8% | Range of Inhibition (%) of Fkn binding [3]: 4-8%
